Measured values taken from patent US20260191196A1, “COMPOSITIONS AND METHODS FOR IMPROVING SOIL MICROBIAL POPULATIONS” (SYNGENTA CROP PROTECTION AG, priority 2022, published 2026).

Tests used:
[1] = tested on: Trichoderma brevicompactum; assay: Potato field trial: beneficial fungi in soil (ITS sequencing, differential abundance); type: in vivo, potato (Solanum tuberculosum L.); conditions: location B; 200 and 250 gai/ha
Protocol: (§1) In this experiment, assuming that biodiversity can be measured by the taxonomic richness and abundance of each taxon, the differences between treatments are determined and their effect on populations and beneficial species over time is verified. This leads to testing two hypotheses. Firstly, there is an impact of cyclobutrifluram applications on microbial diversity. Secondly, the use of cyclobutrifluram improves beneficial microbial diversity over time. These hypotheses were tested in two potato farms in the USA.
The experiment was carried out in two potato (Solanum tuberculosum L.) fields located in two test locations in Louisiana, USA, described as locations A and B in Table 2. […]
(§2) As set out above, to detect microbial community modifications in the soil microbiome associated with the cyclobutrifluram treatment, PCR amplification and successive high-throughput sequencing of bacterial and fungal taxonomical marker genes (the small-subunit ribosomal RNA gene (16S) and the ribosomal internal transcribed spacers (ITS) respectively) were performed on plant-associated soil samples. An exploratory data analysis was conducted to describe the microbial biodiversity and the behaviour of the percentage of the abundance of species under the evaluated factors. […]

[2] = tested on: beneficial bacterial species; assay: Potato field trial: beneficial bacteria in soil (16S sequencing, differential abundance); type: in vivo, potato (Solanum tuberculosum L.)
Protocol: as §1
The experiment was carried out in two potato (Solanum tuberculosum L.) fields located in two test locations in Louisiana, USA, described as locations A and B in Table 2. In each experimental field, three products were tested in an area of 10 m^2 (Table 3) and three replicates per product were established by complete block randomized. To evaluate the effects on the microbiome a “Check” plot (untreated) was established. In addition, fluopyram was employed as a comparative example. Fluopyram is a widely used fungicide and nematicide, and represents the industry standard herein.
To analyse the microbial biodiversity, three soil samples were taken per treatment and each sample consisted of soil collected from three different points within the plots. In this way, the effect of soil variability was minimized, since there were nine samples per treatment. […]
as §2

[3] = tested on: soil fungal community; assay: Plant associated soil microbiome: fungal community by ITS amplicon sequencing; type: in vivo, tomato plants
Source text: Differential abundance of fungal taxa after 97 days in treated soil, as detected by PCR amplification and successive high-throughput sequencing of fungal taxonomical marker genes (the small-subunit ribosomal RNA gene (16S) and the ribosomal internal transcribed spacers (ITS) respectively) on plant-associated soil samples.
To detect microbial community modifications in the soil microbiome associated with the cyclobutrifluram treatment against root knot nematodes, PCR amplification and successive high-throughput sequencing of bacterial and fungal taxonomical marker genes (the small-subunit ribosomal RNA gene (16S) and the ribosomal internal transcribed spacers (ITS) respectively) were performed on plant-associated soil samples.
Comparison of the fungal community of Control and RKN-Cyclobutrifluram plant-associated 5 soil samples highlighted a microbiome shift mainly characterised by the reduction of the plant-pathogen Fusarium, an ubiquitous pathogenic fungus that constitutes an abundant taxon in control soil. Fusarium relative abundance results reduced from 17.8% in control samples to 7.5% after cyclobutrifluram treatment. Table 1b reports fungal genera detected by ITS gene amplicon sequencing with taxonomy assignment at genus level; relative abundance in Control and Cyclobutrifluram treated samples statistically significative (Deseq2, p=0.1), the relative abundance variation.

[4] = Cyclobutrifluram treated plant-associated soil, RKN

## O=C(N[C@@H]1CC[C@@H]1c1ccc(Cl)cc1Cl)c1cccnc1C(F)(F)F (racemic) [Cyclobutrifluram, cyclobutrifluram]
[1]
  Trichoderma brevicompactum relative abundance: significant enhancement
[2]; T2 (60 days after treatment)
  abundance of Bacillus halmapalus and B. cereus: increased significantly
[2]; location A in T3 (120 days after application), location B in T2 (60 days after application)
  Sphingomonas species (S. sediminicola, S. japsi and S. daechungensis) abundance: tend to increase significantly
[2]; location A, 200 and 250 gai/ha
  Pseudomonas putida abundance: significant increase
[3]; [4]
  Relative abundance, Acremonium: 0.214%
  Relative abundance, Arthrinium: 0.398%
  Relative abundance, Candida: 0.839%
  Relative abundance, Chrysosporium: 17.327%
  Relative abundance, Cladosporium: 3.983%
  Relative abundance, Conostachys: 0.797%
  Relative abundance, Eleutherascus: 0.217%
  Relative abundance, Endoconidiophora: 5.102%
  Relative abundance, Fusarium: 7.544%
  Relative abundance, Humicola: 0.000%
  Relative abundance, Lectera: 1.767%
  Relative abundance, Monocillium: 0.083%
  Relative abundance, Mortierella: 2.111%
  Relative abundance, Mycosphaerella: 1.672%
  Relative abundance, Oidiodendron: 0.292%
  Relative abundance, Paraphoma: 0.043%
  Relative abundance, Phialemonium: 0.357%
  Relative abundance, Pseudaleuria: 1.936%
  Relative abundance, Pseudogymnoascus: 0.870%
  Relative abundance, Saitozyma: 0.907%
  Relative abundance, Schwanniomyces: 0.017%
  Relative abundance, Sebacina: 0.077%
  Relative abundance, Solicoccozyma: 0.407%
  Relative abundance, Tetracladium: 0.318%
  Relative abundance, Verticillium: 0.571%
[3]; Cyclobutrifluram treated plant-associated soil, RKN, listed as cyclobutrifluram
  Relative abundance, Fusarium: 7.5%
[3]; Deseq2, p=0.1
  relative abundance variation vs Control, Acremonium: +0.056%
  relative abundance variation vs Control, Arthrinium: +0.293%
  relative abundance variation vs Control, Candida: −0.269%
  relative abundance variation vs Control, Chrysosporium: +2.918%
  relative abundance variation vs Control, Cladosporium: −1.949%
  relative abundance variation vs Control, Conostachys: +0.132%
  relative abundance variation vs Control, Eleutherascus: +0.108%
  relative abundance variation vs Control, Endoconidiophora: +2.581%
  relative abundance variation vs Control, Fusarium: −10.274%
  relative abundance variation vs Control, Humicola: −0.112%
  relative abundance variation vs Control, Lectera: +1.617%
  relative abundance variation vs Control, Monocillium: +0.070%
  relative abundance variation vs Control, Mortierella: −0.412%
  relative abundance variation vs Control, Mycosphaerella: −0.541%
  relative abundance variation vs Control, Oidiodendron: +0.054%
  relative abundance variation vs Control, Paraphoma: −0.023%
  relative abundance variation vs Control, Phialemonium: −0.044%
  relative abundance variation vs Control, Pseudaleuria: +1.181%
  relative abundance variation vs Control, Pseudogymnoascus: +0.550%
  relative abundance variation vs Control, Saitozyma: −0.038%
  relative abundance variation vs Control, Schwanniomyces: −0.005%
  relative abundance variation vs Control, Sebacina: −0.027%
  relative abundance variation vs Control, Solicoccozyma: +0.082%
  relative abundance variation vs Control, Tetracladium: +0.088%
  relative abundance variation vs Control, Verticillium: +0.156%
[3]; apart from inhibiting Fusarium
  effect on soil microbiome diversity (fungal taxa, FIG. 1): preserves soil microbiome diversity
[3]; soil of tomato plants in presence of RKN infestation, medium-long term
  relative abundance of the plant-pathogen Fusarium (in words): substantially reduced
